These results are taken from patent US9220669B2, “Resveratrol ferulate compounds, compositions containing the compounds, and methods of using the same” (ELC Management LLC, priority 2007, dated 2015).

The experiment deals with endogenous reactive oxygen species (ROS), primarily hydrogen peroxide (H2O2), in normal human epidermal keratinocyte (NHEK) cell cultures. The experiment in a line: Endogenous reactive oxygen species (ROS) level in NHEK cell cultures, dichlorodihydrofluorescein diacetate fluorescence. The experiment is classed as cell-based. The following applies: overnight incubation, fluorescence at 5.5 hour time point, NHEK cells. As for the experimental part:
Specifically, NHEK cells were cultured and plated, followed by treatment with Resveratrol Ferulates at concentrations of about 10 μM, 25 μM, and 50 μM. As comparative examples, some NHEK cells were separated treated with resveratrol at a concentration of about 25 μM. Further as control examples, some NHEK cells were maintained without treatment with either Resveratrol Ferulates or resveratrol. Four samples of NHEK cells were provided for each treatment. After overnight incubation of the cell cultures, dichlorodihydrofluorescein diacetate was added thereinto. Dichlorodihydrofluorescein diacetate is a useful fluorogenic reagent for detecting reactive oxygen species in cells. Upon oxidation by the reactive oxygen species, dichlorodihydrofluorescein diacetate becomes the highly green fluorescent dichlorofluorescein, which can be readily detected by fluorescene spectroscopy. For example, a Gemini EM microplate spectrofluorometer commercially available from Molecular Devices at Sunnyvale, Calif. was employed to measure the fluorescence (Ex450, Em525) of the cell cultures at the 5.5 hour time point, which was used as an indication of the amount of reactive oxygen species (primarily H2O2) in the cells.

The structures appear in SMILES notation.

Regarding `Oc1ccc(C=Cc2cc(O)cc(O)c2)cc1` [resveratrol, 3,5,4′-trihydroxystilbene], the “average reduction in ROS level in comparison with the control samples” value by setting is: (10 μM) “about 62.0%”; (25 μM) “about 69.5%”.
